Results as given in ChEMBL document CHEMBL1155621, “Asitrocin, (2,4)-cis- and trans-asitrocinones: novel bioactive mono-tetrahydrofuran acetogenins from Asimina triloba seeds” (J Nat Prod, 2000).
≈ marks a conversion by molar mass, not a printed value.

Tests used:
[1] = test system: MIA PaCa-2; assay: Cytotoxicity against human MiaPaCa2 cells after 7 days by MTT assay; format: functional; conditions: MIA PaCa-2, 168 h, read-out: ED50 (the source's name)
[2] = test system: PC-3; assay: Cytotoxicity against human PC3 cells after 7 days by MTT assay; format: functional; conditions: PC-3, 168 h, read-out: ED50 (the source's name)
[3] = Toxicity in brine shrimp; format: organism-based; conditions: artemia, in vivo
[4] = test system: A498; assay: Cytotoxicity against human A498 cells after 7 days by MTT assay; format: functional; conditions: A498, 168 h, read-out: ED50 (the source's name)
[5] = test system: A549; assay: Cytotoxicity against human A549 cells after 7 days by MTT assay; format: functional; conditions: A549, 168 h, read-out: ED50 (the source's name)
[6] = test system: MCF7; assay: Cytotoxicity against human MCF7 cells after 7 days by MTT assay; format: functional; conditions: MCF7, 168 h, read-out: ED50 (the source's name)
[7] = test system: HT-29; assay: Cytotoxicity against human HT29 cells after 7 days by MTT assay; format: functional; conditions: HT-29, 168 h, read-out: ED50 (the source's name)

Row | SMILES | EC50 [1] [ng/mL] | EC50 [2] [ng/mL] | LC50 [3] [µg/mL] | EC50 [4] [µg/mL] | EC50 [5] [µg/mL] | EC50 [6] [µg/mL] | EC50 [7] [ng/mL]
1 | COc1cccc2c1C(=O)c1c(O)c3c(c(O)c1C2=O)C[C@@](O)(C(=O)CO)C[C@@H]3O[C@H]1C[C@H](N)[C@H](O)[C@H](C)O1 [DOXORUBICIN] | 6.1 (≈ 11.2 nM) | – | – | – | – | – | –
2 | CCCCCCCCCCCC[C@@H](O)[C@H]1CC[C@H]([C@@H](O)CC[C@H](O)CCCCCCC[C@@H](O)CC2=C[C@H](C)OC2=O)O1 [ASITROCIN] | 0.0148 (≈ 0.0248 nM) | 1.22 (≈ 2.04 nM) | 0.063 (≈ 106 nM) | 0.0792 (≈ 133 nM) | 0.118 (≈ 198 nM) | 3.28 (≈ 5500 nM) | 2.99 (≈ 5.01 nM)
